Legend:
[1] = Evaluation of solubility in water at 23° C.; format: physicochemical; conditions: stirred for 1 hour
Procedure: Each of the compounds was added to water at 23° C. under the atmospheric pressure, the components were stirred for 1 hour, and the solubility of the compound in water was obtained. The solubility of the compound was evaluated based on the following criteria.
A: the solubility in water at 23° C. was 0.1 mass % or lower
B: the solubility in water at 23° C. was higher than 0.1 mass % and 1 mass % or lower
C: the solubility in water at 23° C. was higher than 1 mass %

[2] = Evaluation of absorption maximum and absorbance ratio (500 nm/λmax) in solution; format: physicochemical; conditions: solvent chloroform
Description: In this specification, “having an absorption maximum in a wavelength range of 650 to 1000 nm” denotes having a maximum absorbance in a wavelength range of 650 to 1000 nm in an absorption spectrum of the near infrared absorbing compound in a solution. Examples of a measurement solvent used for the measurement of the absorption spectra of the near infrared absorbing compound in the solution include chloroform, methanol, dimethyl sulfoxide, ethyl acetate, and tetrahydrofuran. In the case of a compound which is soluble in chloroform, chloroform is used as the measurement solvent. In the case of a compound which is not soluble in chloroform, methanol is used. In addition, In the case of a compound which is not soluble in chloroform and methanol, dimethyl sulfoxide is used.
Each of the compounds was dissolved in a measurement solvent shown in the following tables (concentration: 2.5×10^−6 mol/L) to measure an absorption spectrum (optical path length: 10 mm).
In addition, an absorbance ratio (500 nm/λmax) as a value obtained by dividing an absorbance at a wavelength of 500 nm by an absorbance at an absorption maximum was evaluated based on the following criteria.
A: the absorbance ratio (500 nm/λmax) was 0.04 or lower
B: the absorbance ratio (500 nm/λmax) was higher 0.04 and 0.08 or lower
C: the absorbance ratio (500 nm/λmax) was higher than 0.08

Which Solubility [1] does the source give for `CC(C)CCCCCCCC(CCCCCC(C)C)COc1cccc(-c2c3c(=C(C#N)c4nc5c(ccc6ccccc65)o4)n(B(c4ccccc4)c4ccccc4)c(-c4cccc(OCC(CCCCCCCC(C)C)CCCCCC(C)C)c4)c3c(=C(C#N)c3nc4c(ccc5ccccc54)o3)n2B(c2ccccc2)c2ccccc2)c1` (stereo not drawn) [II-715] here?
The Solubility was “A (the solubility in water at 23 °C was 0.1 mass % or lower)”.

What about the “Absorbance Ratio (500 nm/λmax)” value [2] of the same compound?
The value was “A (the absorbance ratio (500 nm/λmax) was 0.04 or lower)”.

What about the “Absorption Maximum (nm)” value [2] of the same compound?
Its value is 769 nm.

With `CC(C)CCCCCCCC(CCCCCC(C)C)COc1ccc(-c2c3c(=C(C#N)c4cnc5ccccc5n4)n(B(c4ccccc4)c4ccccc4)c(-c4ccc(OCC(CCCCCCCC(C)C)CCCCCC(C)C)cc4)c3c(=C(C#N)c3cnc4ccccc4n3)n2B(c2ccccc2)c2ccccc2)cc1` (stereo not drawn) [III-9] as the compound, how does the Solubility [1] read?
The Solubility was “A (the solubility in water at 23 °C was 0.1 mass % or lower)”.

What about the “Absorbance Ratio (500 nm/λmax)” value [2] of the same compound?
Its value is “A (the absorbance ratio (500 nm/λmax) was 0.04 or lower)”.

What about the “Absorption Maximum (nm)” value [2] of the same compound?
The value was 863 nm.

With `CC(CCC(COc1cccc(-c2c3/c(=C(\C#N)c4cnc5ccccc5n4)n(B(c4ccccc4)c4ccccc4)c(-c4cccc(OCC(CCC(C)CC(C)(C)C)C(C)CC(C)(C)C)c4)c3/c(=C(\C#N)c3cnc4ccccc4n3)n2B(c2ccccc2)c2ccccc2)c1)C(C)CC(C)(C)C)CC(C)(C)C` (stereo not drawn) [III-28] as the compound, how does the Solubility [1] read?
Its Solubility is “A (the solubility in water at 23 °C was 0.1 mass % or lower)”.

And the “Absorbance Ratio (500 nm/λmax)” value [2]?
The value was “A (the absorbance ratio (500 nm/λmax) was 0.04 or lower)”.

What about the “Absorption Maximum (nm)” value [2] of the same compound?
The value was 863 nm.

For `CCCCCCCCCCC(CCCCCCCC)COc1cccc(-c2c3c(=C(C#N)c4cnc5ccccc5n4)n(B(c4ccccc4)c4ccccc4)c(-c4cccc(OCC(CCCCCCCC)CCCCCCCCCC)c4)c3c(=C(C#N)c3cnc4ccccc4n3)n2B(c2ccccc2)c2ccccc2)c1` (stereo not drawn) [III-29], which Solubility [1] is on record?
Its Solubility is “A (the solubility in water at 23 °C was 0.1 mass % or lower)”.

And the “Absorbance Ratio (500 nm/λmax)” value [2]?
Its value is “A (the absorbance ratio (500 nm/λmax) was 0.04 or lower)”.

And the “Absorption Maximum (nm)” value [2]?
Its value is 863 nm.

Which Solubility [1] does the source give for `CC(C)CCCCCCCC(CCCCCC(C)C)COc1ccc(-c2c3c(=C(C#N)c4cnc5cc(Cl)c(Cl)cc5n4)n(B(c4ccccc4)c4ccccc4)c(-c4ccc(OCC(CCCCCCCC(C)C)CCCCCC(C)C)cc4)c3c(=C(C#N)c3cnc4cc(Cl)c(Cl)cc4n3)n2B(c2ccccc2)c2ccccc2)cc1` (stereo not drawn) [III-167] here?
Its Solubility is “A (the solubility in water at 23 °C was 0.1 mass % or lower)”.

What about the “Absorbance Ratio (500 nm/λmax)” value [2] of the same compound?
The value was “A (the absorbance ratio (500 nm/λmax) was 0.04 or lower)”.

What about the “Absorption Maximum (nm)” value [2] of the same compound?
The value was 885 nm.

With `CC(CCC(COc1ccc(-c2c3/c(=C(\C#N)c4cnc5cc(Cl)c(Cl)cc5n4)n(B(c4ccccc4)c4ccccc4)c(-c4ccc(OCC(CCC(C)CC(C)(C)C)C(C)CC(C)(C)C)cc4)c3/c(=C(\C#N)c3cnc4cc(Cl)c(Cl)cc4n3)n2B(c2ccccc2)c2ccccc2)cc1)C(C)CC(C)(C)C)CC(C)(C)C` (stereo not drawn) [III-168] as the compound, how does the Solubility [1] read?
The Solubility was “A (the solubility in water at 23 °C was 0.1 mass % or lower)”.

What about the “Absorbance Ratio (500 nm/λmax)” value [2] of the same compound?
Its value is “A (the absorbance ratio (500 nm/λmax) was 0.04 or lower)”.

What about the “Absorption Maximum (nm)” value [2] of the same compound?
Its value is 885 nm.

Which Solubility [1] does the source give for `Cc1cc2ncc(/C(C#N)=c3/c4c(-c5cccc(OCC(CCC(C)CC(C)(C)C)C(C)CC(C)(C)C)c5)n(B(c5ccccc5)c5ccccc5)/c(=C(/C#N)c5cnc6cc(C)c(C)cc6n5)c4c(-c4cccc(OCC(CCC(C)CC(C)(C)C)C(C)CC(C)(C)C)c4)n3B(c3ccccc3)c3ccccc3)nc2cc1C` (stereo not drawn) [III-328] here?
Its Solubility is “A (the solubility in water at 23 °C was 0.1 mass % or lower)”.

What about the “Absorbance Ratio (500 nm/λmax)” value [2] of the same compound?
Its value is “A (the absorbance ratio (500 nm/λmax) was 0.04 or lower)”.

And the “Absorption Maximum (nm)” value [2]?
Its value is 872 nm.

Reference: patent publication US10947389B2, “Composition, film, near infrared cut filter, laminate, pattern forming method, solid image pickup element, image display device, infrared sensor, and color filter” (FUJIFILM Corporation, priority 2016, dated 2021)
